Source: patent US20260209177A1, “1-DEOXYNOJIRIMYCIN DERIVATIVE AND USE THEREOF” (ZHEJIANG UNIVERSITY, priority 2022, published 2026)
Entries after “also recorded” stand apart in the source; their conditions may differ.

What was measured:
[1] = tested on: MT-RNR2 mutant HCM-Cybrids; assay: JC-10 mitochondrial membrane potential, polyclonal secondary screening (3 HCM-Cybrids clones); format: cell-based, human; settings: 30 μM, 24 hours, 3 HCM-Cybrids cell clones, FIG. 17
Source text: Polyclonal secondary screening results of different DNJ derivatives on the mitochondrial membrane potential of MT-RNR2 mutant HCM-Cybrids.
A method for detecting the mitochondrial membrane potential was the same as that previously described in Example 3. A difference is that 3 HCM-Cybrids cell clones were applied herein for detection to achieve the purpose of making the results more reliable. […] Next, the focus was on DNJ-1 and DNJ-5a to improve the situations of the membrane potential of Cybrids cells in a normal group and the addition of FCCP in different groups, as shown in FIG. 17B.
An operation method in FIG. 17B is as follows. 30 μM DNJ-1 and DNJ-5a drugs were added into Con-Cybrids and HCM-Cybrids cells, and after 24 hours, 50 μL of 10 μM FCCP diluted with a culture medium was added into 3 duplicate wells in each group. The FCCP, as a decoupling agent, was capable of disrupting the formation of mitochondrial membrane potential. 50 μL of a culture medium was added into 3 cloned duplicate wells in each group. The cells were placed in an environment with 5% of CO2 for culture at 37° C. for 30 min. 100×compound A (JC-10) was diluted with compound B (JC-10 Buffer A). A diluted liquid was added into a well plate at 25 μl per well. The cells were placed in an environment with 5% of CO2 for culture at 37° C. for 30 min. Before loading on a machine, JC-10 Buffer B was added into the well plate at 25 μL per well. Fluorescence values corresponding to Ex/Em=490 nm/525 nm and 540 nm/590 nm were detected by a microplate reader. After a corresponding blank control group was subtracted for each well, PL590/PL525 was compared.

OPA1-EGFP protein = biological target: T1, OPA1-EGFP protein (Homo sapiens, UniProt O60313); assay: Microscale thermophoresis (MST) affinity to purified OPA1-EGFP protein; format: binding; settings: FIG. 20
T1 construct: Flag; His; made in house; host or cells: HEK293T
T1 sequence (O60313 88-960): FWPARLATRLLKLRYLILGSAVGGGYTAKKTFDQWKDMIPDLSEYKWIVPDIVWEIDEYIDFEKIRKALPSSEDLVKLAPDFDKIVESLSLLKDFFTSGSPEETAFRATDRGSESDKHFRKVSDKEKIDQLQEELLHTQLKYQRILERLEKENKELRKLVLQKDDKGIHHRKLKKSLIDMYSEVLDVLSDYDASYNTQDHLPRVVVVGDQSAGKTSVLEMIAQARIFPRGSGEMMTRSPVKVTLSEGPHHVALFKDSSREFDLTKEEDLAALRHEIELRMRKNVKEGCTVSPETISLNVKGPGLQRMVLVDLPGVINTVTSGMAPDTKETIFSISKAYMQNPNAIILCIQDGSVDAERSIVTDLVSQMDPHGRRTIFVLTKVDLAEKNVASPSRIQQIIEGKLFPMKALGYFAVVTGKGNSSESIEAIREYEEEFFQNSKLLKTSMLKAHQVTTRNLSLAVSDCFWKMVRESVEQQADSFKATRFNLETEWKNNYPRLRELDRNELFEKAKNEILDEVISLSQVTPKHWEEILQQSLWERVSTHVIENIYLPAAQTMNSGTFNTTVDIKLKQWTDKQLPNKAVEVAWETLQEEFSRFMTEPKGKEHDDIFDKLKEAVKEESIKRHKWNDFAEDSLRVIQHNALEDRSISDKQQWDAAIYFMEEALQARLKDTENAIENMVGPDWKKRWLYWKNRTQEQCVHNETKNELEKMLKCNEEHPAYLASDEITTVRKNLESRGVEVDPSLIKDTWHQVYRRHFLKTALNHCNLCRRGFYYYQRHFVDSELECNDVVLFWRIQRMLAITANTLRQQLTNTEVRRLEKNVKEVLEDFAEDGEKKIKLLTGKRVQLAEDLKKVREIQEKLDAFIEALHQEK
Source text: An OPA1-EGFP protein was subjected to eukaryotic purification, and an interaction between the target protein and a small molecule compound was detected by microscale thermophoresis (MST) to obtain an affinity parameter, namely a KD value, of the two.
A full-length sequence of OPA1 (NM_015560.2) was obtained by PCR from cDNA derived from HEK293T and then subjected to homologous recombination into a pcDNA3.1-Flag/His-EGFP empty vector to successfully construct a pcDNA3.1-OPA1-Flag/His-EGFP eukaryotic expression vector.
A Flag/His-OPA1-EGFP protein was overexpressed in HEK293T. After transfection for 48 hours, cells were collected and lysed. A protein supernatant was transferred to a new 15 mL centrifuge tube, Flag-beads were added, and incubation was performed on a turntable at 4° C. for 6-8 hours. Then, the supernatant was discarded with a magnetic grate. […] The purified protein was identified and quantified through electrophoresis gel running and a Coomassie brilliant blue staining experiment (FIG. 20A).
The derivative DNJ-1 (mother solution at 30 mM/L) was diluted 150-fold with Binding Buffer to serve as an initial concentration of tube 1. […] 10 μL of the 40 nM purified EGFP-OPA1 mixture was added into each tube and analyzed by a Monolith NT.115 instrument. The Kd value was calculated. […]

Structure (SMILES) | enhancement effect on the mitochondrial membrane potential (PL590/PL525) [1] | Kd value compared with the lead compound DNJ (OPA1-EGFP protein)
O=C(CCCC[C@@H]1CCSS1)N1C[C@H](O)[C@@H](O)[C@H](O)[C@H]1CO [DNJ-1, 5-((R)-1,2-dithiolan-3-yl)-1-((2R,3R,4R,5S)-3,4,5-trihydroxy-2-(hydroxymethyl)piperidin-1-yl) p entan-1-one] | significantly enhance; also recorded: most significant enhancement effects | significantly decreased
CC(C)(C)C(=O)OC[C@H]1NC[C@H](O)[C@@H](O)[C@@H]1O [DNJ-5a, ((2R,3R,4R,5S)-3,4,5-trihydroxypiperidin-2-yl)methyl pivalate] | significantly enhance; also recorded: most significant enhancement effects | significantly decreased
